Test results: US9139532B2, “Pyrazolyl guanidine F1F0-atpase inhibitors and therapeutic uses thereof” (Lycera Corporation, priority 2010, dated 2015)
Read-outs that look alike come from different tables or passages of the source. Each block holds one molecule with its values, some of them ahead of it.

Assays:
[1] = molecular target: T1, F1F0-ATPase (Bos taurus, UniProt P13621); test: Inhibition of F1F0-ATPase activity in synthesizing ATP; format: biochemical; conditions: inhibition of ATP synthesis by F1F0-ATPase; read-out: ATP Syn IC50
T1 construct: from tissue

[2] = system: Ramos cells; test: Cytotoxicity in Ramos cells; format: cell-based; conditions: cytotoxicity in Ramos cells, read-out: Ramos Cell EC50

Structure (SMILES): CCC(C)CN/C(=N/C(=O)c1ccc(Cl)c(F)c1)Nc1cc(-c2cc(F)cc(F)c2)n[nH]1 (centres unmarked) [Compound A-346]
- IC50 [1]: < 10 µM
- EC50 [2]: < 10 µM

Structure (SMILES): O=C(/N=C(/NCc1ccc(F)c(Cl)c1)Nc1cc(C(F)F)[nH]n1)c1ccc(C(F)(F)F)cc1 [Compound A-59]
- IC50 [1]: < 10 µM
- EC50 ([2]; Homo sapiens): > 10 µM

Structure (SMILES): COc1cccc(CN/C(=N/C(=O)c2ccc(F)c(C)c2)Nc2cc(-c3ccc(F)cc3)n[nH]2)c1 [Compound A-392]
- IC50 [1]: < 10 µM
- EC50 [2]: < 10 µM

Structure (SMILES): Cc1ccc(-c2cc(N/C(=N\C(=O)c3ccc(F)c(F)c3)NCC(C)C)[nH]n2)cc1F [Compound A-323]
- IC50 [1]: < 10 µM
- EC50 [2]: < 10 µM

Structure (SMILES): CC(C)N/C(=N/C(=O)c1ccc(Cl)c(F)c1)Nc1cc(-c2ccc(F)cc2)n[nH]1 [Compound A-216]
- IC50 [1]: < 10 µM
- EC50 [2]: < 10 µM

Structure (SMILES): O=C(/N=C(/Nc1cc(C(F)(F)F)n[nH]1)NC1CCCC1)c1ccc(F)c(F)c1 [Compound A-100]
- IC50 [1]: < 10 µM
- EC50 ([2]; Homo sapiens): < 10 µM

Structure (SMILES): COc1ccc(-c2cc(NC(=NC(=O)c3ccc(Cl)c(F)c3)NC3CCOCC3)n[nH]2)cc1 [Compound A-462]
- IC50 [1]: > 10 µM
- EC50 ([2]; Homo sapiens): > 10 µM

Structure (SMILES): O=C(/N=C(/Nc1cc(F)cc(Cl)c1)Nc1cc(-c2ccc(F)cc2)n[nH]1)c1ccc(Cl)cc1 [Compound A-455]
- IC50 [1]: < 10 µM
- EC50 [2]: < 10 µM

Structure (SMILES): Cc1cc(C(=O)/N=C(/NCc2ccccc2C)Nc2cc(-c3ccc(F)cc3)[nH]n2)ccc1F [Compound A-393]
- IC50 [1]: < 10 µM
- EC50 [2]: < 10 µM

Structure (SMILES): C[C@@H](N/C(=N/C(=O)c1ccc(F)c(F)c1)Nc1cc(C(F)(F)F)[nH]n1)c1ccc(Cl)cc1 [Compound A-46]
- IC50 [1]: < 10 µM
- EC50 ([2]; Homo sapiens): < 10 µM

Structure (SMILES): O=C(/N=C(\Nc1cc(-c2cccc(Cl)c2)n[nH]1)NC1CCOCC1)c1ccc(Cl)c(F)c1 [Compound A-463]
- IC50 [1]: < 10 µM
- EC50 [2]: > 10 µM

Structure (SMILES): N#Cc1cccc(C(=O)/N=C(\Nc2cc(-c3cc(F)cc(F)c3)n[nH]2)NC2CCC2)c1 [Compound A-314]
- IC50 [1]: < 10 µM
- EC50 [2]: < 10 µM

Structure (SMILES): CC(C)(C)N/C(=N/C(=O)c1ccc(Cl)cc1)Nc1n[nH]cc1C#N [Compound A-37]
- IC50 [1]: < 10 µM
- EC50 ([2]; Homo sapiens): > 10 µM

Structure (SMILES): CC(C)(C)NC(=NC(=O)c1ccc(Cl)c(F)c1)Nc1cc(-c2cccc(Cl)c2)[nH]n1 [Compound A-468]
- IC50 [1]: < 10 µM
- EC50 ([2]; Homo sapiens): < 10 µM

Structure (SMILES): CC(C)NC(=NC(=O)c1ccc(F)c(F)c1)Nc1cc(-c2ccc(Cl)cc2)n[nH]1 [Compound A-379]
- IC50 [1]: < 10 µM
- EC50 ([2]; Homo sapiens): < 10 µM

Structure (SMILES): CC(C)(C)N/C(=N/C(=O)c1ccc(F)c(F)c1)Nc1cc(-c2ccc(Cl)cc2)[nH]n1 [Compound A-137]
- IC50 [1]: < 10 µM
- EC50 [2]: < 10 µM

Structure (SMILES): Cc1ccc(-c2cc(NC(=NC(=O)c3ccc(C(F)(F)F)cc3)NCc3ccc(F)cc3Cl)[nH]n2)cc1F [Compound A-327]
- IC50 [1]: > 10 µM
- EC50 ([2]; Homo sapiens): > 10 µM

Structure (SMILES): CC(C)(C)N/C(=N/C(=O)c1cccc(C#N)c1)Nc1cc(C(F)(F)F)[nH]n1 [Compound A-73]
- IC50 [1]: < 10 µM
- EC50 ([2]; Homo sapiens): < 10 µM

Structure (SMILES): CC(C)CN/C(=N/C(=O)c1ccc(F)cc1)Nc1cc(-c2ccc(Cl)cc2)n[nH]1 [Compound A-254]
- IC50 [1]: < 10 µM
- EC50 [2]: < 10 µM

Structure (SMILES): COCC(C)NC(=NC(=O)c1ccc(Cl)c(F)c1)Nc1cc(-c2cc(F)cc(F)c2)n[nH]1 (centres unmarked) [Compound A-273]
- IC50 [1]: < 10 µM
- EC50 [2]: < 10 µM

Structure (SMILES): C[C@H](N/C(=N\C(=O)c1ccc(C(F)(F)F)cc1)Nc1cc(C(F)(F)F)n[nH]1)C1CCCCC1 [Compound A-94]
- IC50 [1]: < 10 µM
- EC50 ([2]; Homo sapiens): < 10 µM

Structure (SMILES): CC(C)NC(=NC(=O)c1cccc(F)c1)Nc1cc(-c2cc(F)cc(F)c2)n[nH]1 [Compound A-370]
- IC50 [1]: < 10 µM
- EC50 ([2]; Homo sapiens): < 10 µM

Structure (SMILES): CC(C)CN/C(=N/C(=O)c1ccc(F)cc1)Nc1cc(-c2ccc(F)cc2)[nH]n1 [Compound A-513]
- IC50 [1]: < 10 µM
- EC50 [2]: < 10 µM

Structure (SMILES): Cc1ccc(-c2cc(N/C(=N\C(=O)c3ccc(F)c(F)c3)NCc3ccc(F)cc3Cl)[nH]n2)cc1F [Compound A-317]
- IC50 [1]: < 10 µM
- EC50 [2]: < 10 µM

The next lines start with results.

- IC50 [1]: < 10 µM
Structure (SMILES): N#Cc1cccc(C(=O)/N=C(\Nc2cc(-c3ccc(F)cc3)n[nH]2)NC2CCC(F)(F)CC2)c1 [Compound A-502]
- EC50 [2]: < 10 µM

- IC50 [1]: < 10 µM
Structure (SMILES): O=C(N=C(Nc1cc(C(F)(F)F)n[nH]1)NC1CCC(F)(F)CC1)c1ccc(Cl)c(F)c1 [Compound A-558]
- EC50 ([2]; Homo sapiens): < 10 µM

- IC50 [1]: < 10 µM
Structure (SMILES): CC(C)CN/C(=N/C(=O)c1ccc(C(F)(F)F)cc1)Nc1cc(-c2cc(F)cc(F)c2)n[nH]1 [Compound A-293]
- EC50 [2]: < 10 µM

- IC50 [1]: < 10 µM
Structure (SMILES): O=C(/N=C(/Nc1cc(F)cc(Cl)c1)Nc1cc(-c2ccc(Cl)cc2)n[nH]1)c1ccc(C(F)(F)F)cc1 [Compound A-447]
- EC50 [2]: > 10 µM

- IC50 [1]: < 10 µM
Structure (SMILES): COc1ccc(C(=O)/N=C(/NCC(C)C)Nc2cc(-c3ccc(F)cc3)[nH]n2)cn1 [Compound A-182]
- EC50 [2]: < 10 µM

- IC50 [1]: < 10 µM
Structure (SMILES): O=C(/N=C(/Nc1cc(C(F)(F)F)n[nH]1)NC1CCOC1)c1ccc(F)c(F)c1 (centres unmarked) [Compound A-103]
- EC50 ([2]; Homo sapiens): < 10 µM

- IC50 [1]: < 10 µM
Structure (SMILES): COCC(C)N/C(=N/C(=O)c1ccc(C(F)(F)F)cc1)Nc1cc(C(F)(F)F)n[nH]1 (centres unmarked) [Compound A-97]
- EC50 ([2]; Homo sapiens): < 10 µM

- IC50 [1]: < 10 µM
Structure (SMILES): CC(C)(C)N/C(=N/C(=O)c1ccc(F)c(F)c1)Nc1cc(-c2cccc(Cl)c2)[nH]n1 [Compound A-136]
- EC50 [2]: < 10 µM

- IC50 [1]: < 10 µM
Structure (SMILES): O=C(/N=C(/NCc1ccc(F)cc1Cl)Nc1cc(-c2ccc(F)cc2)n[nH]1)c1ccc(C(F)(F)F)cc1 [Compound A-443]
- EC50 [2]: < 10 µM

- IC50 [1]: < 10 µM
Structure (SMILES): CC(C)(C)N/C(=N/C(=O)c1cccc(C(F)(F)F)c1)Nc1cc(-c2ccc(Cl)cc2)n[nH]1 [Compound A-437]
- EC50 [2]: < 10 µM

- IC50 [1]: < 10 µM
Structure (SMILES): CC(C)(C)NC(=NC(=O)c1cccc(Cl)c1)Nc1cc(-c2ccc(Cl)cc2)n[nH]1 [Compound A-130]
- EC50 ([2]; Homo sapiens): < 10 µM

- IC50 [1]: < 10 µM
Structure (SMILES): O=C(/N=C(/NCc1ccc(Cl)cc1F)Nc1cc(C(F)(F)F)[nH]n1)c1ccc(F)c(F)c1 [Compound A-27]
- EC50 ([2]; Homo sapiens): < 10 µM

- IC50 [1]: < 10 µM
Structure (SMILES): Cc1cc(N/C(=N\C(=O)c2ccc(C(F)(F)F)cc2)NCC(C)C)n[nH]1 [Compound A-189]
- EC50 [2]: < 10 µM

- IC50 [1]: < 10 µM
Structure (SMILES): O=C(N=C(Nc1cc(-c2cc(F)cc(F)c2)n[nH]1)NC1CCC1)c1ccc(Cl)cc1 [Compound A-231]
- EC50 ([2]; Homo sapiens): < 10 µM

- IC50 [1]: < 10 µM
Structure (SMILES): O=C(N=C(Nc1cc(F)cc(Cl)c1)Nc1cc(-c2cccc(C(F)(F)F)c2)[nH]n1)c1ccc(F)c(F)c1 [Compound A-422]
- EC50 ([2]; Homo sapiens): < 10 µM

- IC50 [1]: < 10 µM
Structure (SMILES): CCOCC(C)NC(=NC(=O)c1ccc(F)cc1)Nc1cc(-c2ccc(Cl)cc2)n[nH]1 (centres unmarked) [Compound A-252]
- EC50 ([2]; Homo sapiens): < 10 µM

- IC50 [1]: < 10 µM
Structure (SMILES): CC(C)CN/C(=N/C(=O)c1ccc(C(F)(F)F)cc1)Nc1cc(-c2ccc(Cl)cc2)n[nH]1 [Compound A-240]
- EC50 [2]: < 10 µM

- IC50 [1]: < 10 µM
Structure (SMILES): Cc1ccc(-c2cc(N/C(=N\C(=O)c3ccc(F)c(F)c3)NC3CCCC3)[nH]n2)cc1F [Compound A-316]
- EC50 [2]: < 10 µM

- IC50 [1]: < 10 µM
Structure (SMILES): CC(C)N/C(=N/C(=O)c1ccc(Cl)c(F)c1)Nc1cc(-c2cc(F)cc(F)c2)n[nH]1 [Compound A-359]
- EC50 [2]: < 10 µM

- IC50 [1]: < 10 µM
Structure (SMILES): CCOCC(C)NC(=NC(=O)c1ccc(C(F)(F)F)cc1)Nc1cc(-c2ccc(Cl)cc2)n[nH]1 (centres unmarked) [Compound A-237]
- EC50 [2]: < 10 µM

- IC50 [1]: < 10 µM
Structure (SMILES): CC(C)(C)N/C(=N/C(=O)c1cccc(C#N)c1)Nc1cc(-c2cc(F)cc(F)c2)n[nH]1 [Compound A-315]
- EC50 [2]: > 10 µM

- IC50 [1]: < 10 µM
Structure (SMILES): COCC(C)NC(=NC(=O)c1ccc(F)c(F)c1)Nc1cc(-c2cc(F)cc(F)c2)n[nH]1 (centres unmarked) [Compound A-363]
- EC50 ([2]; Homo sapiens): < 10 µM

- IC50 [1]: < 10 µM
Structure (SMILES): Cc1ccc(-c2cc(N/C(=N\C(=O)c3ccc(C(F)(F)F)cc3)NC3CCC3)[nH]n2)cc1F [Compound A-329]
- EC50 [2]: < 10 µM

- IC50 [1]: < 10 µM
Structure (SMILES): O=C(/N=C(/NCc1ccc(F)cc1Cl)Nc1cc(-c2ccc(Cl)cc2)n[nH]1)c1ccc(C(F)(F)F)cc1 [Compound A-445]
- EC50 [2]: < 10 µM

- IC50 [1]: < 10 µM
Structure (SMILES): CC(C)(C)CN/C(=N/C(=O)c1ccc(C(F)(F)F)nc1)Nc1cc(C(F)(F)F)[nH]n1 [Compound A-80]
- EC50 ([2]; Homo sapiens): < 10 µM

- IC50 [1]: < 10 µM
Structure (SMILES): CCc1ccc(-c2cc(N/C(=N\C(=O)c3ccc(C(F)(F)F)cc3)NC(C)(C)C)[nH]n2)cc1 [Compound A-432]
- EC50 [2]: > 10 µM

- IC50 [1]: < 10 µM
Structure (SMILES): O=C(/N=C(/NCc1ccc(F)cc1Cl)Nc1cc(-c2ccccc2)n[nH]1)c1ccc(F)c(F)c1 [Compound A-483]
- EC50 [2]: > 10 µM

- IC50 [1]: < 10 µM
Structure (SMILES): CC(C)(C)N/C(=N/C(=O)c1ccc(C(F)(F)F)cc1)Nc1cc(-c2cc(F)cc(F)c2)n[nH]1 [Compound A-299]
- EC50 [2]: < 10 µM
